PubChem BioAssay (NCI)
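Following 48 hours of exposure in 96-well plates, responses at five concentrations were used to interpolate endpoints linearly. Here, GI50 denotes the concentration required for 50% inhibition of growth. TGI: concentration producing complete growth inhibition.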

Tests used:
Assay in all cases: NCI anticancer screen, dose series, 48 h
[1] = test system: IGROV1 ovarian
[2] = test system: MDA-MB-435
[3] = test system: 786-0 renal
[4] = test system: NCI/ADR-RES ovarian
[5] = test system: SK-MEL-28 melanoma
[6] = test system: SR leukemia
[7] = test system: DU-145 prostate
[8] = test system: BT-549 breast
[9] = test system: COLO 205 colon
[10] = test system: HT29 colon

SMILES	GI50 [1] [µM]	TGI [1] [µM]	GI50 [2] [µM]	TGI [2] [µM]	GI50 [3] [µM]	TGI [3] [µM]	GI50 [4] [µM]	TGI [4] [µM]	GI50 [5] [µM]	TGI [5] [µM]	GI50 [6] [µM]	TGI [6] [µM]	GI50 [7] [µM]	TGI [7] [µM]	GI50 [8] [µM]	TGI [8] [µM]	GI50 [9] [µM]	TGI [9] [µM]	GI50 [10] [µM]	TGI [10] [µM]
C=C1C(=O)O[C@H]2[C@H]1CC/C(COC(=O)/C=C\C(=O)NCc1ccc(Cn3c(=O)sn(-c4ccc(OC)cc4)c3=O)cc1)=C\CC[C@@]1(C)O[C@@H]21	0.505	1.21	0.642	1.32	0.665	1.37	1.11	4.32	0.825	1.55	0.322	11.8	0.694	1.36	0.562	1.29	0.633	2.02	0.395	1.64
O=C1Nc2ccccc2C1(c1ccc(O)c(F)c1)c1ccc(O)c(F)c1	3.19	50.6	3.06	11.2	18.8	44.1	0.389	> 100	14.4	52	3.83	> 52.3	11.9	42.7	0.166	0.593	0.297	1.98	22.7	48.5
O=S(=O)(O)c1ccc(Cl)cc1.[Cd]	20.9	43.2	20.5	63	22.5	50.2	> 100	> 100	> 100	> 100	22.8	> 100	67.3	> 100	1.94	3.9	> 100	> 100	> 100	> 100
Cc1cc2cc(Cl)ccc2nc1C(=O)c1ccccc1		> 100				> 100				> 100		> 100						> 100		
C/C(=N\Nc1ccc2ccccc2n1)c1ccccc1O		> 100		> 100		> 100		> 100		> 100		8.16		> 100		> 100		> 100		> 100
O=C(/C=C/c1ccccn1)c1ccccc1O	1.76	3.36	1.69	3.41	1.75	3.14	2.87	9.07	2.09	4.22	1.7	4.99	2.31	5.69	2.98	9.71	1.69	3.3	2.23	4.84
O=C1CSC(=S)N1c1ccc(F)cc1F		> 100		> 100		> 100		> 100		> 100				> 100		> 100		> 100		> 100
O=C(CCCCC(=O)N/N=C\c1ccccc1Cl)N/N=C\c1ccccc1Cl	8.79	> 100			14.7	74.9	1.2	> 100	61.3	> 100	> 100	> 100	8.33	> 100			2.91	> 100		
CC1(C)CC[C@]2(C(=O)n3ccnc3)CC[C@]3(C)[C@H](C(=O)C=C4[C@@]5(C)C=C(C#N)C(=O)C(C)(C)[C@@H]5CC[C@]43C)[C@@H]2C1	< 0.0106	< 0.0292	< 0.0148	0.0373	< 0.01	0.0199	< 0.01	0.0895	< 0.0155	0.0848			< 0.01	0.0174	< 0.0328	0.126	0.0139	> 100	< 0.0117	
COc1ccc2nc3cc(Cl)ccc3c(NCCC(=O)OCC(O)C(O)C(O[C@H](C)C(=O)NC(C)C(=O)NC(CCC(N)=O)C(=O)OCc3ccccc3)C(C=O)NC(C)=O)c2c1 (stereo not given in full)		30.2				31.9				32.1		23.6						32.6		41.3
O=C(Nc1ccc(Cl)c(Cl)c1)C(=O)Nn1c(=S)[nH]c2ccccc2c1=O		> 100				> 100				> 100		> 100						> 100		> 100
O=C(CCc1nnc2s/c(=C\c3ccc4c(c3)OCO4)c(=O)n12)Nc1cc(Cl)ccc1Cl		> 100				> 100				> 100		> 100						> 100		> 100
COc1cc(C2c3cc4c(cc3[C@H](NC(=O)c3cccs3)C3COC(=O)[C@H]23)OCO4)cc(OC)c1OC (stereo not given in full)		> 100				21.7		0.459		83.9		17.7				16.4		0.0308		11.2
COc1ccc2c(c1)CCc1cnn(C3OC(COC(C)=O)C(OC(C)=O)C(OC(C)=O)C3OC(C)=O)c1-2 (stereo not given)						75.6				> 100		70.5						> 100		> 100
Cc1cc(C)nc(NS(=O)(=O)c2ccc(NC(=O)c3cccc4c(Nc5ccc(S(=O)(=O)Nc6nc(C)cc(C)n6)cc5)c5ccccc5nc34)cc2)n1		> 100				46.8				46								45.4		43.9
COc1ccc(NC(=O)CC/C(CC(=O)c2ccccc2Cl)=N\Nc2nnc(C)n2N)cc1		> 100				> 100				> 100		> 100						> 100		> 100
C[As](C)Sc1ccnc(S[As](C)C)n1	4.73	> 40.8	1.8	> 27.9	5.36	> 40.5	7.72	> 25.9	2.67	19.7			5.98	> 39.7	3.78	18.2	1.53	> 39.3	3.98	> 39.3
CN(C)c1ccc(/C=C/C(=O)c2ccccc2)cc1Br		48.5				31.8				30.5								34.5		51
COc1ccc(S(=O)(=O)N2CCN(C(=O)OCc3ccccc3)CC2C(=O)NO)cc1 (stereo not given)	4.09	> 25	13.4	> 25	> 25	> 25	> 25	> 25	> 25	> 25			18.7	> 25	> 25	> 25	> 25	> 25	> 25	> 25
Cc1cc(Cl)ccc1NC(=O)/C(Cl)=C(/Cl)C(=O)O				45.9		51.7		74.2		41		36.4		61.4		41.7		78		57.7
Cn1c(=O)nc2n(-c3ccc(F)cc3)c3ccccc3nc-2c1=O		56.5				> 100												22.1		38.7

SMILES	GI50 [1] [µM]	TGI [1] [µM]	GI50 [2] [µM]	TGI [2] [µM]	GI50 [3] [µM]	TGI [3] [µM]	GI50 [4] [µM]	TGI [4] [µM]	GI50 [5] [µM]	TGI [5] [µM]	GI50 [6] [µM]	TGI [6] [µM]	GI50 [7] [µM]	TGI [7] [µM]	GI50 [8] [µM]	TGI [8] [µM]	GI50 [9] [µM]	TGI [9] [µM]	GI50 [10] [µM]	TGI [10] [µM]
O=C1OC(c2ccccc2)C2CC3CC4(CCC3CN12)OCCO4 (stereo not given)		> 100				> 100				> 100		> 100						> 100		> 100
COC(=O)CSc1ccccc1		> 100				30.1												> 100		> 100
COc1ccc(C(=O)/C(=N/Nc2ccccc2)c2ccc(OC)cc2)cc1		> 100				> 100				> 100								> 100		> 100
O=C(N/N=C/c1coc2ccc(Cl)cc2c1=O)c1ccncc1	24.8	> 100	73	> 100	55.3	> 100	35.5	> 100	> 100	> 100			> 100	> 100	71.3	> 100	> 100	> 100	> 100	> 100
[N-]=[N+]=Nc1ccccc1-[n+]1noc([O-])c1Br		> 100				> 100				> 100		> 100						> 100		> 100
N#Cc1ccc(/C=N\N2C(=O)c3ccccc3C2=O)cc1		> 100				> 100				> 100		> 100								> 100
COC(=O)CCC(=O)CC(=O)C(=O)Nc1ccc(F)cc1		> 100				> 100				> 100								> 100		> 100
O=c1oc2c3ccc4ccccc4c3n(CCN3CCOCC3)c2c2ccccc12		> 100				> 100				> 100		58.3						> 100		> 100
COc1ccc(C(=O)C(c2ccc(OC)cc2)C2C(=O)Oc3ccccc32)cc1 (stereo not given)	> 100	> 100			> 100	> 100			> 100	> 100	> 100	> 100					> 100	> 100	> 100	> 100
Nc1nc(=O)n(C2CC(O)C(O)C(CO)O2)cc1F (stereo not given)		> 100				> 100				> 100								> 100		> 100
COc1cc(-c2cc(/C=C/C(=O)c3ccc4c(c3)OCO4)[nH]n2)cc(OC)c1OC	5	62.1			2.33	5.82	4.23	> 100	2.48	7.34	0.552	> 100	2.72	9.56			1.87	3.85	2.18	4.55
COc1ccc(CN2C(=O)C(Cc3cc(OC)c(OC)c(C)c3OC)N(C(=O)OC(C)C)C(=O)/C2=C/c2cc(OC)c(OC)c(C)c2OC)cc1 (stereo not given)		> 100				> 100				> 100		89.8						> 100		> 100
CCOc1cc(C=O)c2c(ccc3ccc(OC)c(OC)c32)c1OC		> 100		> 100		> 100		81.5		> 100				> 100		> 100		> 100		> 100
Cc1cc2c(cc1C)N1Cc3c(ccc(C)c3C)N(C2)C1 (tested in a mixture with another compound)		> 100				> 100				> 100								> 100		> 100
CC(C)(C)C(=O)OCOP(=O)(OCOC(=O)C(C)(C)C)C1CCCN(OC(=O)c2ccccc2)C1=O (stereo not given)	0.657	3.08	3	17.6	0.61	26.4	0.721	7.76	1.05	3.57			2.62	> 100	2.64	17.9	2.39	15.2	0.529	6.28
O=c1cc2n(c(=O)[nH]1)C1OC(C(O)C1O)[C@H]2CCO (stereo not given in full)		> 100				> 100				> 100		> 100						> 100		> 100
C=CCCC(O)c1ccc(C(O)CCCCCCCCCCCC)o1 (stereo not given)	18.7	43.2	17.8	34.7	17.6	31.5	20.9	45.8	27.1	65.5			22.6	46.9	19.9	42.2	40.5	> 100	32.3	> 100
C[N+](C)(C)CCC(=O)N1C/C(=C\c2ccccc2)C(=O)/C(=C/c2ccccc2)C1		13.4		5.49		5.46		3.3		15.4				30.6		4.95		13.4		7.93
O=C(CC1(O)C(=O)Nc2c(Cl)cccc21)c1ccccc1 (stereo not given)						> 100				> 100								> 100		> 100
CN(C)CCCNC(=O)c1cc(NC(=O)CCNC(=O)c2ccc3c(c2)C(=O)c2ccccc2C3=O)cn1C	> 100	> 100	> 100	> 100	> 100	> 100	> 100	> 100			31	99.6			> 100	> 100	33.9	> 100	79.8	> 100
